Laboratory results taken from PubChem BioAssay (NCI).
Values joined by “and” are separate entries in the source; they are usually repeats but may differ in a detail not shown here. Equal values may be shown once.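 Results reflect a 48-hour exposure of cells in 96-well plates to compound at five concentrations. GI50: concentration for 50% inhibition of growth. TGI: total growth inhibition.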

What was measured:
Experiment in all cases: NCI-60 cell line screen, 48 h
TK-10 renal = test system: TK-10 renal
SW-620 colon = test system: SW-620 colon
SF-539 CNS = test system: SF-539 CNS
NCI-H226 lung = test system: NCI-H226 lung
A549 NSCLC = test system: A549 NSCLC
UACC-62 melanoma = test system: UACC-62 melanoma
HCC-2998 colon = test system: HCC-2998 colon
HCT-116 colon = test system: HCT-116 colon
NCI-H522 lung = test system: NCI-H522 lung
SK-MEL-2 melanoma = test system: SK-MEL-2 melanoma
HCT-15 colon = test system: HCT-15 colon
M14 melanoma = test system: M14 melanoma
EKVX NSCLC = test system: EKVX NSCLC
HOP-62 NSCLC = test system: HOP-62 NSCLC
HOP-92 NSCLC = test system: HOP-92 NSCLC
HL-60(TB) leukemia = test system: HL-60(TB) leukemia

SMILES	TGI (TK-10 renal) [µM]	TGI (SW-620 colon) [µM]	TGI (SF-539 CNS) [µM]	TGI (NCI-H226 lung) [µM]	TGI (A549 NSCLC) [µM]	TGI (UACC-62 melanoma) [µM]	TGI (HCC-2998 colon)	TGI (HCT-116 colon) [µM]	TGI (NCI-H522 lung) [µM]	TGI (SK-MEL-2 melanoma) [µM]	TGI (HCT-15 colon) [µM]	TGI (M14 melanoma) [µM]	TGI (EKVX NSCLC) [µM]	TGI (HOP-62 NSCLC) [µM]	TGI (HOP-92 NSCLC) [µM]	TGI (HL-60(TB) leukemia) [µM]	GI50 (M14 melanoma)	GI50 (HOP-92 NSCLC)	GI50 (HL-60(TB) leukemia) [µM]	GI50 (HCT-15 colon) [µM]
CCCCCCCCCCCCCCCCCCNc1ccn(C2OC(COP(=O)(O)OCCCCCCCCCCCCCCCC)C(O)C2O)c(=O)n1 (configuration not stated)	> 100	> 100	> 100	> 100	> 100	> 100	> 100 µM	> 100	> 100	> 100	> 100	> 100	> 100	> 100	> 100	> 100				
COc1ccc(/C=C/c2cc(=O)cc(/C=C/c3ccc(OC)c(O)c3)o2)cc1O	16.9	> 21.8	3.47	20.7	12.6	3.53	3.32 µM	7	> 100	7.99	13.6	4.45	13.3	12.2	13.5	5.02				
CC1(Br)C(=O)NC(=O)N([C@H]2C[C@H](O)[C@@H](CO)O2)C1N=[N+]=[N-] (some centres not stated)	> 100	> 100	> 100	> 100	> 100	> 100	> 100 µM	> 100	> 100	> 100	> 100	> 100	> 100	> 100	> 100	> 100				
COc1ccc(C(F)(F)F)cc1NC(=O)O/N=C(/Cl)C(C)C	28.4	> 21.4	37	35.6	40	36.7	39.3 µM	35.4	4.57	35.6	> 30.4	36	33.6	46	18.9	> 21.8				
COc1ccc(C(=O)N=C2N(c3ccccc3)C(=Nc3ccccc3)C(=Nc3ccccc3)N2c2ccccc2)cc1	> 61.2	> 100	> 100	> 100	> 100	> 100	> 100 µM	> 100	> 100	98.1	> 100	> 65.2	> 100	57.5	15	> 100				
CC(=O)OCC1OC(Sc2nc(-c3ccc(C)cc3)c(C#N)c(=O)n2C2OC(COC(C)=O)C(OC(C)=O)C(OC(C)=O)C2OC(C)=O)C(OC(C)=O)C(OC(C)=O)C1OC(C)=O (configuration not stated)	> 100	> 100	> 100	> 100	> 100	> 100	> 100 µM and 33.2 µM	> 100	> 100	> 100	> 100	> 100	> 100	> 100	> 100	76.6	> 100 µM and 43.3 µM	> 100 µM and 41.7 µM	25.5	
CSc1ccc2c(cc1=O)C(NC(=O)c1cc(O)c(OC(=O)O)c(O)c1)CCc1cc(O)c(O)c(O)c1-2 (configuration not stated)	> 90	29.3	> 90	62.3	52	30.6	> 90 µM	29.1	21.8	> 90	34.3	30.5	38.8	64.5	51.4	70.3				
CCCC/C=C1\CCC(CN2CCOCC2)C1=O (configuration not stated)	19.5	5.13	17.5	24.2	46.2	16	22.1 µM	5.55	2.17	23.8	9.3	10.3	28.3	30.2	3.72	5.61			0.566	3.05
COc1cc([C@@H]2c3cc4c(cc3[C@@H](NC(=O)c3ccc(C(C)=O)cc3)C3COC(=O)[C@@H]32)OCO4)cc(OC)c1O (some centres not stated)	21.8	12.3	1.89	1.93	2.41	2.1	7.91 µM	5.03	3.89	8.03	17.3	31.1	17.6	1.35	27	0.912				
COc1ccc(Oc2nc3cc(C(F)(F)F)ccc3nc2C(C)C)cc1	> 100	84.2	> 100	49.6	> 100	> 100	41.5 µM	> 100	41.3	38.5	59.4	> 100	50.1	> 100	54.9	37.7				
C/C(=N/NC(=S)Nc1cccc(Cl)c1)c1cccc(/C(C)=N\NC(=S)Nc2cccc(Cl)c2)n1	> 100	> 100	3.72	5.44	> 24.5	16.4	> 100 µM	> 35.4	> 27	> 43.9	> 100	7.76	> 39.7	23.8	> 100	> 100				
CCOc1ccccc1N=NC1C(=O)N(C(=O)CC(=O)Nc2ccccc2Cl)N=C1C (configuration not stated)	> 100	> 100	> 100	> 100	> 100	> 100	> 100 µM	> 100	> 100	> 100	> 100	> 100	80.9	68.8	70	> 100				
Cc1nc(SCC(=O)Nc2ccccc2)c2sc(=S)n(-c3ccccc3)c2n1	> 10	> 10	> 10	8.99	> 10	> 10	> 10 µM	> 10	> 10	> 10	> 10	> 10	> 10	> 10	> 10	> 10				
CCC(=O)NCC1(c2c[nH]c3ccccc23)SCCS1	> 100	> 100	> 100	> 100	> 100	> 100	> 100 µM	> 100	> 100	> 100	> 100	> 100	> 100	> 100	> 100	> 100				
N#C/C(=C\N1CCNC1=S)C(=O)c1ccc2ccccc2c1	> 100	> 100	> 100	> 100	> 100	> 100	> 100 µM	> 100	> 100	> 100	> 100	> 100	> 100	> 100	> 100	> 100				
O=c1[nH]ncc2[nH]c3c(c12)CCCc1ccccc1-3	> 100	> 100	> 100	> 100	> 100	> 100	61.4 µM	> 100	> 100	> 100	> 100	> 100	51.7	> 100	> 100	> 100				
OC(CCN1CCN(CCOC(c2ccc(F)cc2)c2ccc(F)cc2)CC1)c1ccccc1 (configuration not stated)	29.2	57.4	25.6	34.4	31	28.2	12.4 µM	26.2	28.1	30.1	27.1	28	26.1	36.5	23.8	37.3				
